From patent US20250194649A1, “FATTY ACID AMIDES AND THEIR USE AS FLAVOR MODIFIERS” (Firmenich SA, priority 2022, published 2025)

How the values were obtained:
Format in all cases: in vivo
[1] = Sensory panel (8 experts): sample added to reference water solution containing 4% sucrose; conditions: dosage 0.2 ppm; scale −5 (strong masking) to 5 (strong enhancing), 0 = reference 4% sucrose in water
Text: (§1) A panel consisting of 8 experts evaluating the samples adding in reference at 0.2 or 5 ppm for their sensory properties (sweet, licorice, sweet lingering) on a scale of −5 to 5 (−5 denoted strong masking effect and 5 denoted strong enhancing effect, 0 being the intensity of a reference water solution containing 4% sucrose, or 0.02% SG95. The results are shown in Table 2.

[2] = Sensory panel (8 experts): sample added to reference water solution containing 0.02% SG95 (stevia extract); conditions: dosage 0.2 ppm; scale −5 to 5, 0 = reference 0.02% SG95 in water
Text: as §1

[3] = Sensory panel (8 experts): sweet intensity of sub-threshold sweetener solutions with and without R1 at 50 ppm; conditions: for Sweet intensity of the compound solution: without R1
Text: A panel consisting of 8 experts evaluating R1 adding in various sweeteners at 50 ppm for their sweet properties (0 denoted no sweet taste, 10 denoted too strong sweet taste). The sweetener dosage were designed under their sweetness threshold in water.

[4] = compound 10 ppm in water, scale 0 (no sweet taste) to 10 (too strong sweet taste)
[5] = compound 10 ppm plus R1 (Sichuan pepper oil) 50 ppm, scale 0 to 10
[6] = compound 2.5 ppm in water, scale 0 to 10
[7] = compound 2.5 ppm plus R1 (Sichuan pepper oil) 50 ppm, scale 0 to 10

Compound: C/C=C/C=C/C=C\CC/C=C/C(=O)NCC(C)(C)O [Compound S1, Hydroxy-α-sanshool]
- ΔSweet intensity to sucrose solution [1]: +0.3
- ΔLicorice intensity to stevia extract solution [2]: +0.3
- ΔLingering intensity to stevia extract solution [2]: −0.8
- ΔSweet intensity tostevia extract solution [2]: +0.1

Compound: C/C=C/C=C/C=C/CC/C=C/C(=O)NCC(C)(C)O [Compound S3, Hydroxy-β-sanshool]
- ΔSweet intensity to sucrose solution [1]: +0.5
- ΔLicorice intensity to stevia extract solution [2]: 0
- ΔLingering intensity to stevia extract solution [2]: −0.4
- ΔSweet intensity tostevia extract solution [2]: +0.2

Compound: O=C1C[C@@H](c2ccc(O)c(O)c2)Oc2cc(O)cc(O)c21 [Eriodictyol, eriodictyol]
- Sweet intensity of the compound solution [3, 4]: 0.03
- Sweet intensity of the compound and R1 blend solution [3, 5]: 1.7

Compound: COc1cc([C@@H]2CC(=O)c3c(O)cc(O)cc3O2)ccc1O [Homoeriodictyol, homoeriodictyol]
- Sweet intensity of the compound solution [3, 4]: 0
- Sweet intensity of the compound and R1 blend solution [3, 5]: 1.7

Compound: C[C@H](CC[C@@H](O[C@@H]1O[C@H](CO[C@@H]2O[C@H](CO)[C@@H](O)[C@H](O)[C@H]2O)[C@@H](O)[C@H](O)[C@H]1O[C@@H]1O[C@H](CO)[C@@H](O)[C@H](O)[C@H]1O)C(C)(C)O)[C@H]1CC[C@@]2(C)[C@@H]3CC=C4[C@@H](CC[C@H](O[C@@H]5O[C@H](CO[C@@H]6O[C@H](CO)[C@@H](O)[C@H](O)[C@H]6O)[C@@H](O)[C@H](O)[C@H]5O)C4(C)C)[C@]3(C)[C@H](O)C[C@]12C [Mogroside V, mogroside V]
- Sweet intensity of the compound solution [3, 6]: 0.08
- Sweet intensity of the compound and R1 blend solution [3, 7]: 1.6

Compound: COc1ccc(CCC(=O)c2c(O)cc(O[C@@H]3O[C@H](CO)[C@@H](O)[C@H](O)[C@H]3O[C@@H]3O[C@@H](C)[C@H](O)[C@@H](O)[C@H]3O)cc2O)cc1O [NHDC, neohesperidin dihydrochalcone]
- Sweet intensity of the compound solution ([3]; compound 0.5 ppm in water, scale 0 to 10): 0.06
- Sweet intensity of the compound and R1 blend solution ([3]; compound 0.5 ppm plus R1 (Sichuan pepper oil) 50 ppm, scale 0 to 10): 1.1

Compound: O=C1C[C@@H](c2ccc(O)cc2)Oc2cc(O)cc(O)c21 [Naringenin, naringenin]
- Sweet intensity of the compound solution [3, 4]: 0.13
- Sweet intensity of the compound and R1 blend solution [3, 5]: 1.3

Compound: C=C1C[C@@]23CC[C@H]4[C@@](C)(CCC[C@@]4(C)C(=O)O[C@@H]4O[C@H](CO)[C@@H](O)[C@H](O)[C@H]4O[C@@H]4O[C@H](CO)[C@@H](O)[C@H](O)[C@H]4O)[C@@H]2CC[C@]1(O[C@@H]1O[C@H](CO)[C@@H](O)[C@H](O)[C@H]1O[C@@H]1O[C@H](CO)[C@@H](O)[C@H](O)[C@H]1O)C3 [Reb E, Rebaudioside E]
- Sweet intensity of the compound solution [3, 6]: 0.06
- Sweet intensity of the compound and R1 blend solution [3, 7]: 1.5

Compound: C=C1C[C@@]23CC[C@H]4[C@@](C)(CCC[C@@]4(C)C(=O)O[C@@H]4O[C@H](CO)[C@@H](O)[C@H](O)[C@H]4O)[C@@H]2CC[C@]1(O[C@@H]1O[C@H](CO)[C@@H](O)[C@H](O[C@@H]2O[C@H](CO)[C@@H](O)[C@H](O)[C@H]2O)[C@H]1O[C@@H]1O[C@H](CO)[C@@H](O)[C@H](O)[C@H]1O)C3 [RebA, Rebaudioside A]
- Sweet intensity of the compound solution [3, 6]: 0.19
- Sweet intensity of the compound and R1 blend solution [3, 7]: 1.9

Compound: C=C1C[C@@]23CC[C@H]4[C@@](C)(CCC[C@@]4(C)C(=O)O[C@@H]4O[C@H](CO)[C@@H](O)[C@H](O)[C@H]4O)[C@@H]2CC[C@]1(O[C@@H]1O[C@H](CO)[C@@H](O)[C@H](O)[C@H]1O)C3 [Rubusoside, rubusoside]
- Sweet intensity of the compound solution ([3]; compound 5 ppm in water, scale 0 to 10): 0
- Sweet intensity of the compound and R1 blend solution ([3]; compound 5 ppm plus R1 (Sichuan pepper oil) 50 ppm, scale 0 to 10): 1.6

Compound: O=C(CCc1ccc(O)cc1)c1c(O)cc(O[C@@H]2O[C@H](CO)[C@@H](O)[C@H](O)[C@H]2O)cc1O [Trilobatin, trilobatin]
- Sweet intensity of the compound solution [3, 4]: 0
- Sweet intensity of the compound and R1 blend solution [3, 5]: 1.5

Compound: COc1ccc(CCC(=O)c2c(O)cc(O[C@@H]3O[C@H](CO)[C@@H](O)[C@H](O)[C@H]3O)cc2O)cc1O [hesperetin dihydrochalcone 4′-O-glucoside]
- Sweet intensity of the compound solution [3, 6]: 0.04
- Sweet intensity of the compound and R1 blend solution [3, 7]: 1.9

Compound: hesperidin dihydrochalcone
- Sweet intensity of the compound solution [3, 4]: 0.09
- Sweet intensity of the compound and R1 blend solution [3, 5]: 1.3

Compound: hydroxy-γ-sanshool [Compound S2]
- ΔSweet intensity to sucrose solution [1]: +0.7
- ΔLicorice intensity to stevia extract solution [2]: −0.5
- ΔLingering intensity to stevia extract solution [2]: −0.8
- ΔSweet intensity tostevia extract solution [2]: +0.3

Compound: malonyl rebaudioside A [Malonyl Reb A]
- Sweet intensity of the compound solution [3, 6]: 0
- Sweet intensity of the compound and R1 blend solution [3, 7]: 1.3

Compound: malonyl rebaudioside E [Malonyl Reb E]
- Sweet intensity of the compound solution [3, 6]: 0.13
- Sweet intensity of the compound and R1 blend solution [3, 7]: 1.5

Compound: α-mogroside IV
- Sweet intensity of the compound solution [3, 6]: 0.13
- Sweet intensity of the compound and R1 blend solution [3, 7]: 1.8
